# How the values were obtained:
# [1] = test system: spontaneously hypertensive male rats, strain SHR; assay: Change in heart rate (HR) in SHR rats; format: in vivo, rat
# Procedure: (§1) Four spontaneously hypertensive male rats, strain SHR, weighing 250-300 g for each group were used. The animals were treated once a day for four consecutive days. Drugs were administered by gastric gavage, suspended in 5% gum arabic (0.2 ml/100 g body weight) and blood pressure (BP) and heart rate (HR) were measured by indirected tail/cuff method (BP Recorder W+W). Blood pressure and heart rate were measured on the first and fourth days of treatment 1 hour before and 1 and 5 hours after drug administration. Hydralazine and α-methyl-Dopa were used as reference drugs.
# [2] = test system: spontaneously hypertensive male rats, strain SHR; assay: Anti-hypertensive activity: change in blood pressure (BP) in SHR rats; format: in vivo, rat; details: for Hypotensive activity vs Hydralazine: compound 25 mg/kg vs Hydralazine 5 mg/kg
# Procedure: as §1
# [3] = test system: mice; assay: Acute toxicity: orientative toxicity in mice; format: in vivo, mouse; details: per os, observed for seven days
# Excerpt: The male mice for each group were orally treated with drugs at different dose levels for the determination of orientative toxicity.
# [4] = test system: mice; details: per os, data of LD50 from the literature; cited from earlier work
# [5] = 5 mg/kg os, 1st day, 1 hour after dosing
# [6] = 5 mg/kg os, 1st day, 5 hours after dosing
# [7] = 5 mg/kg os, 4th day, 1 hour after dosing
# [8] = 5 mg/kg os, 4th day, 5 hours after dosing
# [9] = 25 mg/kg os, 1st day, 1 hour after dosing
# [10] = 25 mg/kg os, 1st day, 5 hours after dosing
# [11] = 25 mg/kg os, 4th day, 1 hour after dosing
# [12] = 25 mg/kg os, 4th day, 5 hours after dosing
# [13] = 30 mg/kg os, 1st day, 1 hour after dosing
# [14] = 30 mg/kg os, 1st day, 5 hours after dosing
# [15] = 30 mg/kg os, 4th day, 1 hour after dosing
# [16] = 30 mg/kg os, 4th day, 5 hours after dosing
# [17] = 100 mg/kg os, 1st day, 1 hour after dosing
# [18] = 100 mg/kg os, 1st day, 5 hours after dosing
# [19] = 100 mg/kg os, 4th day, 1 hour after dosing
# [20] = 100 mg/kg os, 4th day, 5 hours after dosing
smiles,measurement,setting,value
"CO[C@]12C[C@@H](C(=O)N(C(=O)NC3CCCCC3)C3CCCCC3)CN(C)[C@@H]1Cc1cn(C)c3cccc2c13 [Example 10, 1,3-dicyclohexyl-3-(10'α-methoxy-1',6'-dimethylergoline-8'β-carbonyl)-urea]",Change in HR,[1]; [5],-5 beats/minute
same,Change in HR,[1]; [6],-20 beats/minute
same,Change in HR,[1]; [7],-20 beats/minute
same,Change in HR,[1]; [8],+15 beats/minute
same,Change in HR,[1]; [9],-2 beats/minute
same,Change in HR,[1]; [10],-12 beats/minute
same,Change in HR,[1]; [11],-17 beats/minute
same,Change in HR,[1]; [12],-20 beats/minute
same,Change in BP,[2]; [5],-11 mmHg
same,Change in BP,[2]; [6],-22 mmHg
same,Change in BP,[2]; [7],-15 mmHg
same,Change in BP,[2]; [8],-16 mmHg
same,Change in BP,[2]; [9],-26 mmHg
same,Change in BP,[2]; [10],-41 mmHg
same,Change in BP,[2]; [11],-51 mmHg
same,Change in BP,[2]; [12],-40 mmHg
same,Hypotensive activity vs Hydralazine,[2],comparable to that of Hydralazine
same,Tolerance on the 4th day,"[2]; compound 25 mg/kg, unlike Hydralazine",no tolerance on the 4th day
same,Effect on BP (in words),"[2]; os, all tested doses of the compound",a decrease of BP was observed; this effect was long lasting
same,Orientative toxicity in mice,[3],> 800 mg/kg
"C=CCN1C[C@H](C(=O)N(C(=O)NC2CCCCC2)C2CCCCC2)C[C@@H]2c3cccc4[nH]cc(c34)C[C@H]21 [Example 15, 1,3-dicyclohexyl-3-(6'-allylergoline-8'β-carbonyl)-urea]",Change in HR,[1]; [9],-20 beats/minute
same,Change in HR,[1]; [10],-20 beats/minute
same,Change in HR,[1]; [11],-27 beats/minute
same,Change in HR,[1]; [12],-10 beats/minute
same,Change in BP,[2]; [9],-35 mmHg
same,Change in BP,[2]; [10],-27 mmHg
same,Change in BP,[2]; [11],-47 mmHg
same,Change in BP,[2]; [12],-38 mmHg
same,Effect on BP (in words),"[2]; 25 mg/kg, 1st and 4th days",decrease in BP both on the 1st and 4th days of treatment but more pronounced on the 4th day
same,Hypotensive activity vs Hydralazine,[2]; 4th day,much more remarkable
same,Hypotensive activity vs Hydralazine,[2]; first day,comparable to that of Hydralazine
same,Orientative toxicity in mice,[3],> 800 mg/kg
"C[C@](N)(Cc1ccc(O)c(O)c1)C(=O)O [α-methyl-Dopa, reference compound]",Change in HR,[1]; [13],+35 beats/minute
same,Change in HR,[1]; [14],+40 beats/minute
same,Change in HR,[1]; [15],+45 beats/minute
same,Change in HR,[1]; [16],+30 beats/minute
same,Change in HR,[1]; [17],+70 beats/minute
same,Change in HR,[1]; [18],+40 beats/minute
same,Change in HR,[1]; [19],+50 beats/minute
same,Change in HR,[1]; [20],+10 beats/minute
same,Effect on HR (in words),"[1]; SHR rats, os",increase of HR
same,LD50 (orientative toxicity column),[4],5300 mg/kg
same,Change in BP,[2]; [13],-10 mmHg
same,Change in BP,[2]; [14],-20 mmHg
same,Change in BP,[2]; [15],-10 mmHg
same,Change in BP,[2]; [16],0 mmHg
same,Change in BP,[2]; [17],-10 mmHg
same,Change in BP,[2]; [18],-25 mmHg
same,Change in BP,[2]; [19],-20 mmHg
same,Change in BP,[2]; [20],-25 mmHg

# — patent US4526892A, “Dimethylaminoalkyl-3-(ergoline-8'βcarbonyl)-ureas” (Farmitalia Carlo Erba, S.p.A., priority 1982, dated 1985)
